Experimental data from ChEMBL document CHEMBL5715958 (Mol Cancer Res, 2018).
Blank lines part the entries; values can stand above or below the compound they belong to. Activity calls are given as the source filed them. The rule behind the calls is not given here.

How the values were obtained:
[1] = target: Cyclin-dependent kinase 4 (Homo sapiens) (UniProt P11802); test: Inhibition of MIB binding to CDK4 in human NCI-H2228 cells at 0.01 to 10 uM incubated for 1 hr by Western blotting analysis; assay type: cell-based; conditions: dose 0.01-10 µM
[2] = target: Glycogen synthase kinase-3 beta (Homo sapiens) (UniProt P49841); test: Inhibition of MIB binding to GSK3beta in human NCI-H2228 cells at 0.01 to 10 uM incubated for 1 hr by Western blotting analysis; assay type: cell-based; conditions: dose 0.01-10 µM
[3] = target: Dual specificity mitogen-activated protein kinase kinase 1 (Homo sapiens) (UniProt Q02750); test: Inhibition of MIB binding to MEK1 in human NCI-H2228 cell lysate at high dose incubated for 1 hr by Western blotting analysis; assay type: subcellular
[4] = target: Dual specificity mitogen-activated protein kinase kinase 2 (Homo sapiens) (UniProt P36507); test: Inhibition of MIB binding to MEK2 in human NCI-H2228 cell lysate at high dose incubated for 1 hr by Western blotting analysis; assay type: subcellular; conditions: dose 3-3000 µM
[5] = target: Tyrosine-protein kinase receptor UFO (Homo sapiens) (UniProt P30530); test: Inhibition of MIB binding to AXL in human NCI-H2228 cell lysate at high dose incubated for 1 hr by Western blotting analysis; assay type: subcellular; conditions: dose 3-3000 µM
[6] = target: Dual specificity mitogen-activated protein kinase kinase 1 (Homo sapiens) (UniProt Q02750); test: Inhibition of MIB binding to MEK1 in human NCI-H2228 cells at 3 to 3000 uM incubated for 1 hr by Western blotting analysis; assay type: cell-based; conditions: dose 3-3000 µM
[7] = target: Dual specificity mitogen-activated protein kinase kinase 2 (Homo sapiens) (UniProt P36507); test: Inhibition of MIB binding to MEK2 in human NCI-H2228 cells at 3 to 3000 uM incubated for 1 hr by Western blotting analysis; assay type: cell-based; conditions: dose 3-3000 µM
[8] = target: Tyrosine-protein kinase receptor UFO (Homo sapiens) (UniProt P30530); test: Inhibition of MIB binding to AXL in human NCI-H2228 cells at 3 to 3000 uM incubated for 1 hr by Western blotting analysis; assay type: cell-based; conditions: dose 3-3000 µM
[9] = target: Dual specificity mitogen-activated protein kinase kinase 1 (Homo sapiens) (UniProt Q02750); test: Inhibition of MIB binding to MEK1 in human NCI-H2228 cell lysate at 3 to 3000 uM pre-incubated with MIB followed by compound addition measured after 1 hr by Western blotting analysis; assay type: subcellular; conditions: dose 3-3000 µM
[10] = target: Dual specificity mitogen-activated protein kinase kinase 2 (Homo sapiens) (UniProt P36507); test: Inhibition of MIB binding to MEK2 in human NCI-H2228 cell lysate at 3 to 3000 uM pre-incubated with MIB followed by compound addition measured after 1 hr by Western blotting analysis; assay type: subcellular; conditions: dose 3-3000 µM
[11] = target: Tyrosine-protein kinase receptor UFO (Homo sapiens) (UniProt P30530); test: Inhibition of MIB binding to AXL in human NCI-H2228 cell lysate at 3 to 3000 uM pre-incubated with MIB followed by compound addition measured after 1 hr by Western blotting analysis; assay type: subcellular; conditions: dose 3-3000 µM
Mus musculus [12] = test: Inhibition of MIB binding to MEK1 in mouse kidney at 3 mg/kg, po measured after 2 hr by MIB/MS competitive binding analysis; assay type: functional, organism-based
Mus musculus [13] = test: Inhibition of MIB binding to MEK2 in mouse kidney at 3 mg/kg, po measured after 2 hr by MIB/MS competitive binding analysis; assay type: functional, organism-based
[14] = target: Tyrosine-protein kinase Lyn (Homo sapiens) (UniProt P07948); test: Inhibition of MIB binding to LYN in human NCI-H2228 cells at 0.01 to 10 uM incubated for 1 hr by MIB/MS competitive binding analysis; assay type: cell-based; conditions: dose 0.01-10 µM
[15] = target: Tyrosine-protein kinase Yes (Homo sapiens) (UniProt P07947); test: Inhibition of MIB binding to YES1 in human NCI-H2228 cells at 0.01 to 10 uM incubated for 1 hr by MIB/MS competitive binding analysis; assay type: cell-based; conditions: dose 0.01-10 µM
[16] = target: Calcium/calmodulin-dependent protein kinase type II subunit beta (Homo sapiens, UniProt Q13554); test: Inhibition of human CAMK2beta preincubated with compound for 20 mins followed by [33P]ATP addition and measured after 2 hrs by filter binding method
[17] = target: Calcium/calmodulin-dependent protein kinase type II subunit delta (Homo sapiens, UniProt Q13557); test: Inhibition of human CAMK2delta preincubated with compound for 20 mins followed by [33P]ATP addition and measured after 2 hrs by filter binding method
[18] = target: Calcium/calmodulin-dependent protein kinase type II subunit gamma (Homo sapiens, UniProt Q13555); test: Inhibition of human CAMK2gamma preincubated with compound for 20 mins followed by [33P]ATP addition and measured after 2 hrs by filter binding method
RKO = test: Effect on beta-catenin protein level in human RKO cells at 5 uM incubated for 6 hrs by Western blotting analysis; assay type: functional, cell-based
L-M(TK-) = test: Effect on beta-catenin protein level in mouse L-M(TK-) cells at 5 uM incubated for 6 hrs by Western blotting analysis; assay type: functional, cell-based

Sequence of Dual specificity mitogen-activated protein kinase kinase 2 (Homo sapiens) (P36507 whole entry): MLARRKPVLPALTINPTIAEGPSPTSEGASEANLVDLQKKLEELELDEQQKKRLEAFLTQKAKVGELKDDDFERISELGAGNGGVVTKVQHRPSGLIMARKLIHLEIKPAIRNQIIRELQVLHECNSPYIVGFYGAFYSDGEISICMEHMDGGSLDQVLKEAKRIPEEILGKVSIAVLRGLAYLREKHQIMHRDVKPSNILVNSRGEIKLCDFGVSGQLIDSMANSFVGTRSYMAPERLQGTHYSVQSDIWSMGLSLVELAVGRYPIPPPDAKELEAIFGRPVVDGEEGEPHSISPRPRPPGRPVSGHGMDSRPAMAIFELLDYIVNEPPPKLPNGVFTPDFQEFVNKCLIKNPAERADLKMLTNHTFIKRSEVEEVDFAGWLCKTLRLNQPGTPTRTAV
Sequence of Tyrosine-protein kinase receptor UFO (Homo sapiens) (P30530 whole entry): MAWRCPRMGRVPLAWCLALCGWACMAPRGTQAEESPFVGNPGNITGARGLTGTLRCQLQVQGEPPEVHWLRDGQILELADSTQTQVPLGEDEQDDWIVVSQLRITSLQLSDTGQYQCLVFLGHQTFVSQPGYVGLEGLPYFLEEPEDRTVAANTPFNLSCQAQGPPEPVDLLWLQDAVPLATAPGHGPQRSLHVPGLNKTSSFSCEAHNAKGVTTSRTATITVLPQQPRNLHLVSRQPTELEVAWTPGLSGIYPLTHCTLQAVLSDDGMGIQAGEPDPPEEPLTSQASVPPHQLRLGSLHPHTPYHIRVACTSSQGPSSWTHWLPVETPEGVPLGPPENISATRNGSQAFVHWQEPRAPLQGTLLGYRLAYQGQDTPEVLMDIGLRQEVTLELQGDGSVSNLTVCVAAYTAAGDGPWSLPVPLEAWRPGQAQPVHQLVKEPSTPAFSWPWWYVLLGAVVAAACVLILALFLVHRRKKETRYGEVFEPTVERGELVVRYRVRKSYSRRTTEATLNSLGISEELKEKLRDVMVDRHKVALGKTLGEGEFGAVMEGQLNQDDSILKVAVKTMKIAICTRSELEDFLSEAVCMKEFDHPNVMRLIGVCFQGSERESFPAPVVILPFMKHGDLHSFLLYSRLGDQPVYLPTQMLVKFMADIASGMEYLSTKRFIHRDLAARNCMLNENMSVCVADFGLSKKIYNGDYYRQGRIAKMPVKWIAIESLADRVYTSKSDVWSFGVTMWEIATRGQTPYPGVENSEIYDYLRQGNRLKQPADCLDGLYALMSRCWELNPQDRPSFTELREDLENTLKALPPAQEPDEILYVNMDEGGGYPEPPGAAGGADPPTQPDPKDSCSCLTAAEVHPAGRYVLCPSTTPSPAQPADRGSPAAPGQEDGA
Sequence of Dual specificity mitogen-activated protein kinase kinase 1 (Homo sapiens) (Q02750 whole entry): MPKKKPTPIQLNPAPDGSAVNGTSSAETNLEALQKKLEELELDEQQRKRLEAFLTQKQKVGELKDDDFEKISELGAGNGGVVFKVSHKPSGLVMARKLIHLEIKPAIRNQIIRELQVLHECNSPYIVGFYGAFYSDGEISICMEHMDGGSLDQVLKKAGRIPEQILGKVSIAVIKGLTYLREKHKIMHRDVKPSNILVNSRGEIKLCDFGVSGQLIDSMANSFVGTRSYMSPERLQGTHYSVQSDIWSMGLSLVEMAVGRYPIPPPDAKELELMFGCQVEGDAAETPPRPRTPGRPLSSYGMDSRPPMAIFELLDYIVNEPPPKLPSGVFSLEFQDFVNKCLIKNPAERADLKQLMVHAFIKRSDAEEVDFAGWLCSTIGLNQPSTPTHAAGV
Sequence of Calcium/calmodulin-dependent protein kinase type II subunit beta (Q13554 whole entry): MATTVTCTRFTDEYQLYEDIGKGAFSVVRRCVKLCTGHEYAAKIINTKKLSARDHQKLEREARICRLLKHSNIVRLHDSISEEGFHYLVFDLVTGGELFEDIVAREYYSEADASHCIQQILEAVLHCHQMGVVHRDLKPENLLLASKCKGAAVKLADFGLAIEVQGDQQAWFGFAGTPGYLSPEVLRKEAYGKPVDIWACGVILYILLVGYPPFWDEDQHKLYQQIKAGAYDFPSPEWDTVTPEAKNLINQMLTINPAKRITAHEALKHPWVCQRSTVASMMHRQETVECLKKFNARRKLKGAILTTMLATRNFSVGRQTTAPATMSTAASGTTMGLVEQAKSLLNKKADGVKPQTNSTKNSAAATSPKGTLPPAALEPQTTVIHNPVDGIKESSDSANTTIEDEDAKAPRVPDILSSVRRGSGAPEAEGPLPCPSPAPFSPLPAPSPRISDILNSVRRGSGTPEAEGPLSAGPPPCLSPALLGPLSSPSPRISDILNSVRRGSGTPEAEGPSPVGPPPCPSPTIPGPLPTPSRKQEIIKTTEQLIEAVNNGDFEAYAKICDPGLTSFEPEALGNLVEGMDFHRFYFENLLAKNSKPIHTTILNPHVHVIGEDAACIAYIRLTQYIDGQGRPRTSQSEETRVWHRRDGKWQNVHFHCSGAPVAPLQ
Sequence of Cyclin-dependent kinase 4 (Homo sapiens) (P11802 whole entry): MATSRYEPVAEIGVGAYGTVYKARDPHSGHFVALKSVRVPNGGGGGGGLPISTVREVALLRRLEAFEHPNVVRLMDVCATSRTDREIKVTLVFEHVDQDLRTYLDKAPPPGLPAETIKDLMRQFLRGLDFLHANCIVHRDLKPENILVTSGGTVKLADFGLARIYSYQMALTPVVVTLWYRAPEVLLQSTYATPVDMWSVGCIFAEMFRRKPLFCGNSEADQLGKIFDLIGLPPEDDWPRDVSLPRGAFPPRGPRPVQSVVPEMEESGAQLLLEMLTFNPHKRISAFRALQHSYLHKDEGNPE
Sequence of Glycogen synthase kinase-3 beta (Homo sapiens) (P49841 whole entry, looked up): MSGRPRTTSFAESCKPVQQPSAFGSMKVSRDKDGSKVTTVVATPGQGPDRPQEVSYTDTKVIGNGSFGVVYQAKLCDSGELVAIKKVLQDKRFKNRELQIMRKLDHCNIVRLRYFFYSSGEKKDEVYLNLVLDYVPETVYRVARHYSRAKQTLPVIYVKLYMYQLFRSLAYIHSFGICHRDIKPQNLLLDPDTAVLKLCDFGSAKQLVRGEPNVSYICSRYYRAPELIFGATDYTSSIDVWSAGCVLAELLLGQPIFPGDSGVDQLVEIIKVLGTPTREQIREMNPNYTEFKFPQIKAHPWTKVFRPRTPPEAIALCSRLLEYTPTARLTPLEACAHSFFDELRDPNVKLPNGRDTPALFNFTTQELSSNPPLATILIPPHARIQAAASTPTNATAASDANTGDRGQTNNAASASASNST
Sequence of Tyrosine-protein kinase Lyn (Homo sapiens) (P07948 2-512 limits assumed): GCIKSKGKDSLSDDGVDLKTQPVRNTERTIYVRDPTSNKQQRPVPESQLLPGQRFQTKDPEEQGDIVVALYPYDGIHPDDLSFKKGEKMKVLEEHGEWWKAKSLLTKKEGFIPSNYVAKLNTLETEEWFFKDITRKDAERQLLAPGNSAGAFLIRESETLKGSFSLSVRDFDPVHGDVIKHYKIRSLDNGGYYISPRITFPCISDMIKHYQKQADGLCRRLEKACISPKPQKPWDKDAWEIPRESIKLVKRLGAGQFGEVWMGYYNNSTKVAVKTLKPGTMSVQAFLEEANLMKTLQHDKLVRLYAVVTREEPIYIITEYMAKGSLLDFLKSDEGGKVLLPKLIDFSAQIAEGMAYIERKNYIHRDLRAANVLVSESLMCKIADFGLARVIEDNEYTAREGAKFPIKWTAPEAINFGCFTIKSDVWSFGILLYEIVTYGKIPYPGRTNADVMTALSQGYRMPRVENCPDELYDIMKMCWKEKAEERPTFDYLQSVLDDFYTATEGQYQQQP
Sequence of Calcium/calmodulin-dependent protein kinase type II subunit delta (Q13557 whole entry): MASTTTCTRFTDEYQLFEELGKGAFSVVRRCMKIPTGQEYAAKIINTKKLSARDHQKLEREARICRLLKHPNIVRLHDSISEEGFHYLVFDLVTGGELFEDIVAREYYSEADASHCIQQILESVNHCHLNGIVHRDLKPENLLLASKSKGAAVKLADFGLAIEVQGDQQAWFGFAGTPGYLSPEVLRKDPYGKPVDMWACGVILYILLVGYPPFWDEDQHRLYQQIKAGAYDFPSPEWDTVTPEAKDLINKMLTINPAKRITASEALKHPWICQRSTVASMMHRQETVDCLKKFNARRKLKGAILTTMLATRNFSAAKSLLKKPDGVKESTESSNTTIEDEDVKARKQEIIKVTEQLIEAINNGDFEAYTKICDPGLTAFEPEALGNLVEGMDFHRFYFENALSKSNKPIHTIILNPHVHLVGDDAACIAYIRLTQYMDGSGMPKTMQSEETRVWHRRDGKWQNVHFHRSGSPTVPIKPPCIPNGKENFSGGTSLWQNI
Sequence of Tyrosine-protein kinase Yes (Homo sapiens) (P07947 2-543 limits assumed): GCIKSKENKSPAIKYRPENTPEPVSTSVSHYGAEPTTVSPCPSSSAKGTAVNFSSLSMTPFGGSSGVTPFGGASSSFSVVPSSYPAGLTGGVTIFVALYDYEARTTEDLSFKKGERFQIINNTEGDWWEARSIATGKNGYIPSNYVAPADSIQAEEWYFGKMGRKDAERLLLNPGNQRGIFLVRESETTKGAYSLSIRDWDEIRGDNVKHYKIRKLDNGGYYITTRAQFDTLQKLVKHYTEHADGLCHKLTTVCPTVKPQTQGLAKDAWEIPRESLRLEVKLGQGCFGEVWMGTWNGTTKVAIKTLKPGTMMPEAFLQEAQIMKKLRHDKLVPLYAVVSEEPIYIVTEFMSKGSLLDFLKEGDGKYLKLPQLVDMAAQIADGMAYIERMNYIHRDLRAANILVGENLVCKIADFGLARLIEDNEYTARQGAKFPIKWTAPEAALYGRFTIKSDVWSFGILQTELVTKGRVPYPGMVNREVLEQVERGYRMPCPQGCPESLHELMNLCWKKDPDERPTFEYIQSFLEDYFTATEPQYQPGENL

Compound: CC(=O)Nc1cccc(-n2c(=O)n(C3CC3)c(=O)c3c(Nc4ccc(I)cc4F)n(C)c(=O)c(C)c32)c1
- inhibition [3]: Active
- inhibition [4]: Active
- inhibition [5]: inactive
- inhibition [6]: Active
- inhibition [7]: Active
- inhibition [8]: inactive
- inhibition [9]: Active
- inhibition [10]: Active
- inhibition [11]: inactive
- inhibition (Mus musculus [12]): Active
- inhibition (Mus musculus [13]): Active

Compound: Cc1nc(Nc2ncc(C(=O)Nc3c(C)cccc3Cl)s2)cc(N2CCN(CCO)CC2)n1
- inhibition [14]: Active
- inhibition [15]: Active

Compound: CC(=O)c1c(C)c2cnc(Nc3ccc(N4CCNCC4)cn3)nc2n(C2CCCC2)c1=O [PALBOCICLIB]
- IC50 [16]: 1600 nM
- Activity (RKO): inactive
- Activity (L-M(TK-)): inactive

Second part, the compound after the results:

- inhibition [1]: Active
- inhibition [2]: inactive
Compound: CN(C)C(=O)c1cc2cnc(Nc3ccc(N4CCNCC4)cn3)nc2n1C1CCCC1

- IC50 [16]: 3.5 nM
- IC50 [17]: 2.6 nM
- IC50 [18]: 52 nM
Compound: CCN1CCN(Cc2ccc(Nc3ncc(F)c(-c4cc(F)c5nc(C)n(C(C)C)c5c4)n3)nc2)CC1 [ABEMACICLIB]
